{"source": "patent US10023611B2", "about": "“Process for the preparation of bortezomib mannitol ester” (Cipla Limited, priority 2013, dated 2018)", "key": {"Water solubility": {"assay": "Water solubility", "format": "physicochemical", "experimental": "Bortezomib (a boronic acid compound), in its solid state as a pure API existed in the form of highly water insoluble boroxine, a cyclic boronic acid anhydride. When placed in water, the boroxine dissociated to form equilibrium between itself and the monomeric bortezomib resulting in an apparent water solubility of about 0.5-1 mg/ml which was not sufficient for formulation purposes. In order to deal with such issues, the innovator company in their patent WO2002059130 application has described a stable formulation containing mannitol ester of bortezomib. The application '9130 also relates to a process of preparing such formulation by first dissolving the bortezomib in warm (temperature around 45±2° C.) TBA (tertiary butyl alcohol), then adding water and mannitol (1% bulking agent), followed by freeze drying. […] So, the FDA approved drug Bortezomib is now available as a mannitol boronic ester which in its reconstituted form consists of the mannitol ester in equilibrium with its hydrolysis product, the monomeric boronic acid. The drug substance exists in its cyclic anhydride from as a trimeric boroxine, as described below in FIG. 1."}, "[1]": {"conditions": "boroxine placed in water, equilibrium with monomeric bortezomib; cited from earlier work"}}, "data": [{"smiles": "CC(C)C[C@H](NC(=O)[C@H](Cc1ccccc1)NC(=O)c1cnccn1)B(O)O", "note": "[Bortezomib, [(1R)-3-methyl-1-[[(2S)-1-oxo-3-phenyl-2-[(pyrazinylcarbonyl)amino]propyl]amino]butyl] boronic acid]", "values": [{"measurement": "water solubility (in words)", "setting": "Water solubility", "result": "poorly water soluble"}, {"measurement": "apparent water solubility", "setting": "[1]", "result": "500 to 1000", "unit": "µg/mL"}]}, {"smiles": "CC(C)C[C@H](NC(=O)[C@H](Cc1ccccc1)NC(=O)c1cnccn1)B1OC(C(O)CO)C(C(O)CO)O1", "note": "(stereo in doubt) [Compound B, bortezomib-mannitol ester]", "values": [{"measurement": "water solubility (soluble in volumes of water)", "setting": "Water solubility", "result": "around 5 volumes water"}]}]}
